Measured values reported in patent publication US7893082B2, “Substituted tetrahydroquinolines” (Merck Patent GmbH, priority 2005, dated 2011).

Test system: cells
Test: cell cycle effect (appended experiments)
Format: cell-based
Conditions: G2/M cell cycle

N=C(N)c1ccc(OCCCCCOc2ccc(C(=N)N)cc2)cc1 [pentamidine]
effect on cell cycle: maintain cells in the G2/M cell cycle
